Laboratory results reported in patent publication US20240270741A1 (Cogent Biosciences, Inc., priority 2023, published 2024).
pIC50: −log10 of the molar value.

What was measured:
FGFR2 V564F = FGFR2 V564F (Homo sapiens, UniProt P21802, V564F); assay: FGFR mutant enzyme assay (HTRF KinEASE-TK), FGFR2 V564F; format: biochemical; conditions: Table 4
From the text: (§1) (Catalogue number 62TK0PEC).

FGFR2 = FGFR2 (Homo sapiens, UniProt P21802); assay: FGFR wild type enzyme assay (HTRF KinEASE-TK), FGFR2; conditions: for pIC50: FGFR2 Enz, Table 4; for IC50: Enz FGFR2 (nM)
FGFR2 V564I = FGFR2 V564I (Homo sapiens, UniProt P21802, V564I); assay: FGFR mutant enzyme assay (HTRF KinEASE-TK), FGFR2 V564I; format: biochemical; conditions: Table 4
From the text: as §1

FGFR2-WT = FGFR2-WT (Homo sapiens, UniProt P21802); assay: Phosphorylated FGFR2-WT (pFGFR2-WT) cell assay, KATOIII cells; format: cell-based; conditions: Table 4
Protocol: Phosphorylated FGFR2-WT (pFGFR2-WT) Cell Assay:
KATOIII cells were grown in the appropriate growth medium, IMDM supplemented with 20% fetal bovine serum. Cells were seeded into a 384-well at 1×10^5 cells/25 μL/well. Cells were treated with compound using three-fold serial dilutions at final concentrations ranging from 10 μM to 0.5 nM. Compound was incubated on cells for 1 hour at 37° C., 5% CO2.
Following the 1-hour incubation with compounds, cell lysates were prepared and phospho FGFR2 was measured using the HTRF Phospho-FGFR2 (TYR653/654) Detection Kits (CisBio, cat #64FGFR2Y6PEG). 8 μL of cell lysis buffer (4×) supplied with 1× Phospho and Total protein blocking reagent (CisBio, cat #64FGFR2Y6PEG, CisBio, cat #64KB1AAC) was then added to the wells. Cells were incubated with lysis buffer for 40 minutes at 4° C. under shaking conditions. Plates were centrifuged at 1500 rpm for 3 min and then 16 μL of cell lysate was transferred from the cell-culture plate to a small volume detection plate with the added premixed antibody solutions (4 μL) (CisBio, cat #64FGFR2Y6PEG). Plates were centrifuged at 1000 rpm for 1 min then incubated at 25° ° C. for 120 min, then overnight at 4° C. Plates were read on the EnVision multimode plate reader via HTRF dual wavelength detection. One hundred percent of control (POC) was determined using DMSO treated samples, and 0 POC was determined using the top concentration of a control compound. A 4-parameter logistic curve was fit to the POC values as a function of compound concentration to determine the IC50 value.

FGFR2 N549H = FGFR2 N549H (Homo sapiens, UniProt P21802, N549H); assay: FGFR mutant enzyme assay (HTRF KinEASE-TK), FGFR2 N549H; format: biochemical; conditions: Table 4
From the text: as §1

Sequence of FGFR2 V564F (P21802 399-821 V564F limits assumed): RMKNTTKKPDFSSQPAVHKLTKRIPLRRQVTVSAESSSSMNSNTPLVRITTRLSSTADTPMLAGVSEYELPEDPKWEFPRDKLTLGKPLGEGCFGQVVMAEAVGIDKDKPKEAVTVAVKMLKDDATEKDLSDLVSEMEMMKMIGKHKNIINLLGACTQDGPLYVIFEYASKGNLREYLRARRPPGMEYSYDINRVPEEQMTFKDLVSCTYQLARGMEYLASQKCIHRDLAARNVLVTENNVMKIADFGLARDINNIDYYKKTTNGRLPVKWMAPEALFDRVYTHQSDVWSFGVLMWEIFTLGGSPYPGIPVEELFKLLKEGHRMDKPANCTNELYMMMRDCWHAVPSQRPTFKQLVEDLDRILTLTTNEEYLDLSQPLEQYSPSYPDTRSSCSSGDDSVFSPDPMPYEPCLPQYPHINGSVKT
Sequence of FGFR2 N549H (P21802 399-821 N549H limits assumed): as the sequence (P21802 399-821 V564F limits assumed) above, with N151H, F166V counted along it
Sequence of FGFR2 (P21802 399-821 limits assumed): as the sequence (P21802 399-821 V564F limits assumed) above, with F166V counted along it
Sequence of FGFR2-WT (P21802 22-821): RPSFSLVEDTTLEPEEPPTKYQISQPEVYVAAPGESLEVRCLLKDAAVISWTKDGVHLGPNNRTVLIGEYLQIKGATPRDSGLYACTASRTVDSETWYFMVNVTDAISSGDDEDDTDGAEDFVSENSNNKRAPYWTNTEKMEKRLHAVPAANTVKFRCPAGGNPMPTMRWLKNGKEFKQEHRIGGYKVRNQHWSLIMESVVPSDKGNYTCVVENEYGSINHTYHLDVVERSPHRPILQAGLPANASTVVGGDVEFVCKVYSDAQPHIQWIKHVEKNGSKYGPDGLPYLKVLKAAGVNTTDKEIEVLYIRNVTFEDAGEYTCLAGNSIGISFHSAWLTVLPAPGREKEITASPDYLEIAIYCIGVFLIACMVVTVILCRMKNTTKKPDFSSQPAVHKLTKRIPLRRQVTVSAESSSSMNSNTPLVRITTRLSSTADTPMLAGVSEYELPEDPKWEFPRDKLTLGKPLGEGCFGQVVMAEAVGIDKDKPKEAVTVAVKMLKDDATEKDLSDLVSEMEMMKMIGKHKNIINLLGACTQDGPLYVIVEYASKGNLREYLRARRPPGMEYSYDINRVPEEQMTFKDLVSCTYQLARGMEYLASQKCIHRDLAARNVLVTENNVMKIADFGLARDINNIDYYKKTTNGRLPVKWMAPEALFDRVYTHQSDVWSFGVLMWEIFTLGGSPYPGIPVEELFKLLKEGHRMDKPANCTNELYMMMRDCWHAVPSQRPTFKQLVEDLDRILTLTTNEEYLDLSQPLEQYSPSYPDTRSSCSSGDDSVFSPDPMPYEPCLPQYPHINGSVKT
Sequence of FGFR2 V564I (P21802 399-821 V564I limits assumed): as the sequence (P21802 399-821 V564F limits assumed) above, with F166I counted along it

pIC50 (FGFR2 V564F) | pIC50 (FGFR2) | pIC50 (FGFR2 V564I) | pIC50 (FGFR2-WT) | pIC50 (FGFR2 N549H) | IC50 (FGFR2) | Compound
8.52 | 8.52 | 8.22 | 7.60 | 8.82 | – | N#Cc1cnn2cc(-c3cnn([C@H]4CCCNC4)c3)cc(Sc3ccccn3)c12 [Example 1, 6-[1-[(3S)-3-Piperidyl]pyrazol-4-yl]-4-(2-pyridylsulfanyl) pyrazolo[1,5-a]pyridine-3-carbonitrile]
9.30 | 9.52 | 9.00 | 7.55 | 9.70 | 0.3 nM | CN[C@H]1CC[C@@H](n2ncc(-c3cc(Sc4ccccc4C#N)c4c(C#N)cnn4c3)c2C)CC1 [Example 117, -[(5-fluoro-2-methyl-4-pyridyl)sulfany1]-6-[5-methyl-1-(4-piperidyl)pyrazol-4-yl]pyrazolo[1,5-a]pyridine-3-carbonitrile]
8.05 | 9.92 | 7.92 | 7.39 | 8.40 | 5 nM | Cc1nc(Sc2cc(-c3cnn(C4CCN(C)CC4)c3C)cn3ncc(C#N)c23)ccc1F [Example 128]
8.40 | 9.00 | 8.30 | 6.93 | 8.52 | 2 nM | Cc1c(-c2cc(Sc3cccc(F)c3C#N)c3c(C#N)cnn3c2)cnn1C1CCNCC1 [Example 130, 4-(2-cyano-3-fluoro-phenyl)sulfanyl-6-[5-methyl-1-(4-piperidyl)pyrazol-4-yl]pyrazolo[1,5-a]pyridine-3-carbonitrile]
